Measured values: US20100048604A1, “Ligands for Aldoketoreductases” (priority 2004, published 2010)

Tests used:
AKR1C3 = target: T1, AKR1C3 (Homo sapiens, UniProt P42330); assay: Steady state kinetic parameters of fluorogenic substrates with purified AKR1C isozymes; type: biochemical
T1 construct: gift of Professor Trevor Penning (University of Pennsylvania School of Medicine)
T1 sequence (P42330 1-323): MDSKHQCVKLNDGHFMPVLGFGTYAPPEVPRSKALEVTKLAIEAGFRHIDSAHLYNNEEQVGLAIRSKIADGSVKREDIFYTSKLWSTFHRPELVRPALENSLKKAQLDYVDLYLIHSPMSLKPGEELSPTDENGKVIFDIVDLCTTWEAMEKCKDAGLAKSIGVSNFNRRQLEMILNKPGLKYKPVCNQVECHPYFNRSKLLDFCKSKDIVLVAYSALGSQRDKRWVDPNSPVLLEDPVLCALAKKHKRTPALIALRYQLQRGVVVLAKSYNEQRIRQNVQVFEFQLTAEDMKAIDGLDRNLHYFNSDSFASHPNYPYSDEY
Procedure: The initial reaction rates were used to derive standard kinetic parameters (kcat and Km, Materials and Methods).
Substrate tolerance of AKR1Cs: Isozyme Activity with 5a-5i: Activity of the second generation of fluorogenic substrates with the AKR1C isozymes was determined as follows. […] After mixing the aqueous components thoroughly, 20 μL of acetonitrile was added as a cosolvent and mixed well. […] 4 μL of undiluted AKR1C (provided generously by the Penning lab at concentrations of 2.5 mg/mL) were then added to the cuvette for a total of 10 μg purified enzyme in the 1 mL assay volume. Fluorescence arising from the respective alcohol reduction product was then monitored over the course of 5-10 minutes.
Binding constant and catalytic rates (Km and kcat) of the second generation of fluorogenic substrates was determined as follows. […] After mixing the aqueous components thoroughly, 20 μL of acetonitrile was added as a cosolvent and mixed well. […] To initiate the reduction, 2 or 4 μL of diluted AKR1C (1:2 to 1:100, depending on the kinetics of a particular isozyme's reduction of a substrate) was then added to the cuvette. Fluorescence arising from the respective alcohol reduction product was then monitored over the course of 3 minutes (Excitation and emission band pass slits both at 4 nm, lamp 700 V, λexc 410 nm, λem 510).
initial rate=[nst×(Ft−F0)/(Fst)]/t (1)
where Ft and F0 represent the fluorescence at times t and 0 minutes, nst is the nanomoles of product in a known concentration of product, and Fst is the fluorescence resulting from nst of product. […] Reported enzymatic kinetic parameters are the average of three independent determinations from three different preparations of substrate and enzyme.

HepG2 cell fractions = assay: Metabolism of phenyl ketone 5c in HepG2 cell fractions; type: in vitro ADME, human; settings: 10 μM 5c
Procedure: FIG. 17. Reactivity of HepG2 cell fractions with 5c. Assays were performed in 50 mM Tris-HCl buffer containing 1 mM NADPH, 10 μM 5c and 80 μg protein/mL, incubated for 60 minutes. Legend: (+) without flufenamic acid; (−) with 100 μM flufenamic acid; HepG2=hepatoma cell line.
Selectivity of Phenyl Ketone Probe 5c in Cellular Lysates: The selectivity of phenyl ketone probe 5c in human hepatoma cells (HepG2), which are known to express all four AKR1C isozymes in the cytoplasm, was tested. […] An issue may be non-selective reduction of probes with microsomes, which are organelles enriched with redox enzymes. Following one hour incubation of probe 5c with both cytosolic and microsomal fractions prepared from HepG2 cells, the resulting mixtures were analyzed fluorimetrically. […] Moreover, reduction by the cytoplasmic extract was suppressed by flufenamic acid, a known inhibitor of the AKR1C isozymes (Penning, T. M.; Talalay, P. Proc Natl Acad Sci USA 1983, 4504-4508).
HepG2 cells were obtained from and grown in the Penning laboratory (University of Pennsylvania School of Medicine). Cells were maintained at 37° C. and 5% CO2 containing Eagle's minimal essential medium supplemented with 100 U/mL penicillin, 100 μg/mL streptomycin, 2 mM L-glutamine, and 10 % heat-inactivated fetal bovine serum.
To measure metabolism of 5c in HepG2 cell fractions, the cells were harvested and fractionized as follows. HepG2 cells were grown to confluency on eight 15×100 mm dishes, whereupon 500 μL of ice cold Tris-HCl-sucrose buffer (50 mM Tris-HCl at pH 7.4, 250 mM sucrose, 1 mM EDTA, and 1 mM 2-mercaptoethanol) was added to each dish. Cells were scratched off and taken up directly into an ice cold potter. These cells were then homogenized and sonicated (10 one-second 10 W bursts, four times on ice). […]
Protein concentrations for whole or fractionized HepG2 cells were determined by standard Bradford assays (Bradford, M. M.; Anal. Biochem. 1976, 72, 248). […] Reactions were initiated with 80 μg of protein per 1 mL assay and monitored fluorimetrically for up to 2 hours. […]

[1] = Solubility in DMSO, methanol and acetonitrile; type: physicochemical; settings: methanol, acetonitrile, organic solvent or mixture, read-out: solubility class (asterisk) in DMSO, methanol, and acetonitrile
[2] = target: T2, rat 3α-hydroxysteroid dehydrogenase (Rattus norvegicus, UniProt P23457); assay: Enzymatic screening of probes 1-7 against a panel of oxidoreductases; type: biochemical; settings: 12 hour incubation, 30-50 μM substrate, pH 7, 250 μM NAD(P)H
T2 construct: gift of Professor Trevor Penning (University of Pennsylvania School of Medicine)
T2 sequence (P23457 1-322): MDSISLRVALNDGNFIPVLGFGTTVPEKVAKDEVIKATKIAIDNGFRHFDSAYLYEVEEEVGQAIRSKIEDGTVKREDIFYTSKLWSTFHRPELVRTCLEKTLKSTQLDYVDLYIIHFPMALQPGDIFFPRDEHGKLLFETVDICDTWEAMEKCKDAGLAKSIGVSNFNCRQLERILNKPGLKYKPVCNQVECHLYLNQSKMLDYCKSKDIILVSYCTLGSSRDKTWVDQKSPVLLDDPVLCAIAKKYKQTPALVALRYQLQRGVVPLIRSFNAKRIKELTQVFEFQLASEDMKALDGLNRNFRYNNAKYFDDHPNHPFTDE
Procedure: (§1) FIG. 4. Screening of probes 1-7 against a panel of oxidoreductases Percentage fluorescence increase after 12 hour incubation of 30-50 μM substrate, 100 mM phosphate buffer (pH 7), 250 μM NAD(P)H, and 100 nM enzyme. Substrates 1, 2, 3, and 4 monitored at λexc=340 nm, λem=440 nm. Substrates 5, 6, and 7 monitored at λexc=440 nm, λem=510 nm. 3HSD, 3α-hydroxysteroid dehydrogenase (PT, Pseudomonas testosteroni), HLAD, horse liver alcohol dehydrogenase, TBAD, Thermoanaerobium brockii alcohol dehydrogenase, BS 12HSD, Bacillus sp. 12α-hydroxysteroid dehydrogenase, ABAD, amyloid-β binding alcohol dehydrogenase (human), GDH, glycerol dehydrogenase, YADH, yeast alcohol dehydrogenase, LDH, lactate dehydrogenase.
(§2) Probes 1-7 (see FIG. 3) were subsequently tested against a collection of dehydrogenases in the presence of NAD(P)H; the extent of reduction was assessed by the measurement of fluorescence intensity at the emission maximum of each probe (FIG. 4). This assay included enzymes from two major oxidoreductase superfamilies, the short chain alcohol dehydrogenases (SDR) and the aldo-keto reductases (AKR), ranging from bacterial to mammalian and human enzymes.
(§3) Horse Liver alcohol dehydrogenase (Lot Number 51K7520), Thermoanaerobium brockii NADP^+ dependent alcohol dehydrogenase (Lot Number 033K4093), Pseudomonas testosteroni 3α-hydroxysteroid dehydrogenase (Lot Number 053K8624), and Bacillus sphaericus 12α-hydroxysteroid dehydrogenase (Lot Number 70K16621) were purchased from Sigma (St. Louis, Mo.). Yeast alcohol dehydrogenase (Lot Number 93122920), glycerol dehydrogenase (Lot Number 92110122), (D)-lactate dehydrogenase (Lot Number 92419236), (L)-lactate dehydrogenase (Lot Number 92801821), NAD^+, NADP^+, NADH, and NADPH were purchased from Roche. Enzyme activity was confirmed by compliance to supplier's quality control assays prior to usage. Rat and human 3α-hydroxysteroid dehydrogenases were provided by Professor Trevor Penning (University of Pennsylvania School of Medicine) and human amyloid-β peptide binding alcohol dehydrogenase was supplied by Professor Shi Du Yan (Columbia University School for Physicians and Surgeons).
(§4) Enzymatic assays were performed in triplicate on selected fluorogenic substrates according to the following protocol. To each well of a FALCON 96-well black flat bottom plate was added (1) 40 μL of 500 mM potassium phosphate buffer pH 7.0, (2) 113 μL of double deionized water, (3) 25 μL of 2 mM NADH (except for Pseudomonas testosteroni 3α-hydroxysteroid dehydrogenase, rat 3α-hydroxysteroid dehydrogenase, and Thermoanaerobium brockii NADP^+ dependent alcohol dehydrogenase, in which cases 2 mM of NADPH was used), (4) 2 μL of a 3-5 mM solution of substrate in DMSO, and (5) 20 μL of a 40-50 μg/mL solution of enzyme. Reaction volumes were mixed thoroughly after addition of cofactor, substrate, and enzyme and allowed to react 12 hours at 25° C. Scanning of the 96-well plate was performed by the MicroMax 384 connected to a Jobin Yvon Fluorolog through F-3000 fiber optic cables.
(§5) Initial Screening with Fluorogenic Substrates: Screening of the first fluorogenic substrates for enzymatic activity has been described above. In short, 200 μL enzymatic assay volumes containing 100 mM potassium phosphate buffer (pH 7), 250 μM NAD(P)H cofactor, and 30-50 μM of ketones (1-7) were incubated for 12 hours on a black FALCON 96-well plate. Formation of the alcohol reduction product was determined by reading the fluorescence arising from excitation at the corresponding alcohol at either 340 nm (27-30) or 440 nm (31-33).

[3] = target: T3, Pseudomonas testosteroni 3α-hydroxysteroid dehydrogenase (Comamonas testosteroni, UniProt P80702); assay: as above; type: biochemical; settings: 12 hour incubation, 30-50 μM substrate, pH 7, 250 μM NAD(P)H
T3 construct: purchased Sigma (St. Louis, Mo.) Lot Number 053K8624 (catalogue number not given)
T3 sequence (P80702 whole entry): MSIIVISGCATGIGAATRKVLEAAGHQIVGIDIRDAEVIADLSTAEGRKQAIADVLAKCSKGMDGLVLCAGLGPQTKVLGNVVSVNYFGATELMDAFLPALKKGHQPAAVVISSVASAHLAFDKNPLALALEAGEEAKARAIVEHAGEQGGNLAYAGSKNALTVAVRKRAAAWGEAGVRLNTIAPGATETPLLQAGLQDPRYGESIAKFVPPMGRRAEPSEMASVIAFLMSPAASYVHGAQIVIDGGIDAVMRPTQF
Procedure: as §1, §2, §3, §4, §5

[4] = isozyme 1C3, potassium phosphate buffer pH 6, NADPH, fluorimetric

`O=C(c1ccccc1)c1cc(=O)oc2c3c4c(cc12)CCCN4CCC3` [5c, 8-Benzoyl-2,3,5,6-tetrahydro-1H,4H-11-oxa-3a-aza-benzo[de]anthracen-10-one] gave a Km (AKR1C3; AKR1C3, value of the text) of 0.051 µM, a Kcat (AKR1C3; [4]) of 0.0988 s⁻¹ and a Km (AKR1C3; [4]) of 0.05 µM. The “reduction in cytoplasmic (cytosolic) fraction” value (HepG2 cell fractions; HepG2 cytosolic fraction, 1 mM NADPH, 80 μg protein/mL, one hour incubation) was “enzymatic reduction occurred” and the “stability / reduction in microsomal fraction” value (HepG2 cell fractions; HepG2 microsomes, 1 mM NADPH, 80 μg protein/mL, one hour incubation) was “stable in the presence of microsomes”.
In the case of `COc1ccc2cc(-c3ccc(C(C)=O)cc3)c(=O)oc2c1` [VB11], the solubility [1] is reported as > 1000 µM.
In the case of `CC(=O)c1ccc(-c2cc3cc4c5c(c3oc2=O)CCCN5CCC4)cc1` [VB35], the solubility [1] is reported as > 1000 µM.
With `CC(=O)c1ccc(-c2cc3cc4c5c(c3oc2=O)CCCN5CCC4)cc1` [compound 6, 9-(4-Acetyl-phenyl)-2,3,5,6-tetrahydro-1H,4H-11-oxa-3a-aza-benzo[de]anthracen-10-one] the “reduction of probe (fluorescence increase)” value [2] was “good conversion” and the “reduction of probe (fluorescence increase)” value [3] was “good conversion”.
In the case of `O=C(O)c1ccccc1Nc1cccc(C(F)(F)F)c1` [flufenamic acid, reference compound], the “effect on reduction of 5c by the cytoplasmic extract” value (HepG2 cell fractions; 100 μM flufenamic acid, HepG2 cytoplasmic extract) is reported as “suppressed”.
